Several values for one entry are separate records, joined by “and”; a condition that tells them apart may be missing. Identical values can stand only once. Counter-ions that a name gives are not always drawn.
These compounds were tested against T1, hTA1 (Homo sapiens, UniProt Q96RJ0) (assay: Screen of 89 aminergic compounds at 10 µM, cAMP accumulation in HEK293T cells). Conditions: 10 µM of compound; HEK293T; threshold log2-fold change of 2.
T1 construct: expressed in transfected cells; host or cells: HEK293T
T1 sequence (Q96RJ0 1-339): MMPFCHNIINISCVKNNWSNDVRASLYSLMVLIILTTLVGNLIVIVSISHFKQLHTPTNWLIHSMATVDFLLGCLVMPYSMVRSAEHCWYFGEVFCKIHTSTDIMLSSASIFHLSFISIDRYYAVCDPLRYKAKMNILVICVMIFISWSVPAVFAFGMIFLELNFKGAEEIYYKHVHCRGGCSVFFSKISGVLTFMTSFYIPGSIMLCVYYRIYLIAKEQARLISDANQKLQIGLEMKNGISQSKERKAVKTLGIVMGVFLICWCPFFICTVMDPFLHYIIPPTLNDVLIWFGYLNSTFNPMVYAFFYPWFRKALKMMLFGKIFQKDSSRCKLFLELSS
Type: cell-based
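Further: HEK293T cells co-transfected with hTA1 and GloSensor cAMP reporter, cAMP accumulation detected by luminescence.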

Compound | increase of signal over DMSO-treated controls (hTA1 activation)
NCCc1c[nH]cn1 [histamine] | ≥ 4 fold

Same assay, conditions: quadruplicate values; screen at 10 µM

Compound | Luminescence for Screening Data
O=C1CC[C@@]2(O)[C@H]3Cc4ccc(O)c5c4[C@@]2(CCN3CC2CC2)[C@H]1O5 [Naltrexone hydrochloride] | 7.8 and 5.6 and 5.9 and 6.7
C#CCN(C)Cc1ccccc1 [Pargyline hydrochloride] | 8.3 and 10.1 and 8.8 and 8.5
NCCc1c[nH]cn1 [histamine] | 13.5 and 15.3 and 16.1 and 15.1
O=C(CCCN1CCC2(CC1)C(=O)NCN2c1ccccc1)c1ccc(F)cc1 [Spiperone] | 6.2 and 8.3 and 7.1 and 6.7
C/C=C(/C)C(=O)O[C@H]1C(C)=C2[C@H]([C@@H]1OC(=O)CCCCCCC)[C@@](C)(OC(C)=O)C[C@H](OC(=O)CCC)[C@@]1(O)[C@H]2OC(=O)[C@@]1(C)O [Thapsigargin] | 6.1 and 7.3 and 5.8 and 7.7
O=S(=O)(c1ccccc1)c1cnc2c(N3CCNCC3)cccc2c1 [SB742457] | 9 and 8.4 and 8.8 and 9.7
COc1ccc(C(CN(C)C)C2(O)CCCCC2)cc1 (stereo not drawn) [Venlafaxine] | 6.7 and 7 and 6 and 6.5
O=C1CCc2ccc(OCCCCN3CCN(c4cccc(Cl)c4Cl)CC3)cc2N1 [Aripiprazole] | 3.9 and 3.4 and 5.3 and 4.7
Cc1nn(C)c(C)c1-c1cccc2c1CC[C@H](N(C)C)C2 [AS19] | 9.8 and 9.9 and 8 and 6.8
CN1[C@@H](CC(=O)c2ccccc2)CCC[C@H]1C[C@H](O)c1ccccc1.CN1[C@@H](CC(=O)c2ccccc2)CCC[C@H]1C[C@H](O)c1ccccc1.O=S(=O)(O)O [Lobeline sulfate] | 7.2 and 5 and 5.7 and 5.4
CN1CCC(c2cn(C)c3ccc(OS(=O)(=O)c4c(F)cccc4F)cc23)CC1.O=C(O)C(=O)O [SGS 518 oxalate] | 6.7 and 6.8 and 8
Fc1ccc(C(OCCN2CCN(CCCc3ccccc3)CC2)c2ccc(F)cc2)cc1 [GBR12909] | 4.8 and 5.2 and 6.6 and 6.2
Oc1cc(O)c2c(c1)O[C@H](c1cc(O)c(O)c(O)c1)[C@H](O)C2 [Epigallocatechin] | 5.2 and 5.7 and 5.9 and 6.3
CCCCCCCCCOc1ccc2[nH]cc(CCN)c2c1 [5-nonyloxytryptamine] | 10.6 and 10.3 and 13.3 and 10.2
CN(C)CCOC1=Cc2ccccc2Sc2ccc(Cl)cc21 [zotepine] | 5.4 and 6.9 and 6.1 and 5.8
O=c1c(O)c(-c2ccc(O)c(O)c2)oc2cc(O)cc(O)c12 [Quercetin] | 31.9 and 24.7 and 28.4 and 23.7
C=CCc1ccccc1OCC(O)CNC(C)C (stereo not drawn) [Alprenolol] | 10.1 and 8.4 and 7.8 and 6.7
NCCc1ccccc1 [B-PEA] | 160.4 and 164.2 and 180.4 and 167
Fc1ccc2c(CCNCc3cccc(OCC(F)(F)C(F)F)c3)c[nH]c2c1 [LuAE58054] | 7.5 and 10.3 and 7.4 and 7.7
O=C1c2ccccc2S(=O)(=O)N1CCCCN1CCN(c2ncccn2)CC1 [Ipsapirone] | 6.8 and 5.5 and 5.4

Compound | Luminescence for Screening Data
Cn1ccc2cc3c(cc21)CCN3C(=O)Nc1cccnc1 [SB206553] | 5.8 and 7.8 and 6.3
CCN1CCC[C@H]1CNC(=O)c1c(O)c(Cl)cc(Cl)c1OC [Raclopride] | 4.1 and 6.9 and 6.4 and 5
COc1ccc(S(=O)(=O)Nc2cc(Cl)cc(Cl)c2OC)cc1N1CCNCC1 [SB399885] | 6.4 and 5.8 and 6.1 and 6.2
Cc1nc2sccn2c(=O)c1CCN1CCC(=C(c2ccc(F)cc2)c2ccc(F)cc2)CC1 [Ritanserin] | 5.6 and 5.8 and 6.1 and 6.3
CNCCC(Oc1ccc(C(F)(F)F)cc1)c1ccccc1 (stereo not drawn) [Fluoxetine] | 8.5 and 7.5 and 8.1 and 6.5
COC(=O)[C@H]1[C@H]2C[C@H]3c4[nH]c5ccccc5c4CCN3C[C@H]2CC[C@@H]1O [Rauwolscine hydrochloride] | 6.9 and 7.7 and 6.8
Cl.O=c1[nH]oc2c1CCNC2 [Gaboxadol HCl] | 7 and 8.2 and 5.3 and 6.3
CN(C)CCCC1(c2ccc(F)cc2)OCc2cc(C#N)ccc21 (stereo not drawn) [Citalopram hydrobromide] | 6.1 and 6.2 and 7.2 and 6.9
NCCc1c[nH]c2ccc(O)cc12 [Serotonin Hydrochloride] | 29.3
COc1cc(N)c(Cl)cc1C(=O)CCC1CCN(CCNS(C)(=O)=O)CC1.Cl [RS 67506 hydrochloride] | 5.6 and 9 and 4.8 and 5.5
CNc1ccc2c(CCN)cc(=O)oc2c1 [FFN206] | 12.7 and 12.5 and 12.8
COc1ccc(CC2NCCc3c2[nH]c2ccc(C)cc32)c(Cl)c1OC.Cl (stereo not drawn) [LY266097 hydrochloride] | 5.6 and 6.8 and 5.3 and 5.9
CNC1(c2ccccc2Cl)CCCCC1=O (stereo not drawn) [Ketamine] | 4.7 and 6.1 and 5.5 and 5.6
N=C(N)NC(=O)c1nc(Cl)c(N)nc1N [Amiloride] | 9.5 and 8.8 and 7 and 8.1
CS(=O)(=O)Nc1ccc(Cc2noc(-c3ccc4[nH]cc(CCN)c4c3)n2)cc1 [L694 247] | 6.5 and 8.1 and 7.2
NC(=O)c1ccc(F)c2c1C[C@@H](N(C1CCC1)C1CCC1)CO2 [NAD 299] | 6.3 and 5.6 and 4.8 and 5.9
Cl.O=C1Nc2ccc(Cl)c3c2C1(CCCCN1CC=C(c2ccc(Cl)cc2)CC1)CCC3 (stereo not drawn) [DR4485 hydrochloride] | 5.6 and 5.7 and 6.4 and 4.9
COc1cc2c(cc1OC)C1CC(=O)C(CC(C)C)CN1CC2 (stereo not drawn) [Tetrabenazine] | 6.8 and 8.5 and 6.4 and 8.8
CN/C(=N/CCSCc1nc[nH]c1C)NC#N [Cimetidine] | 8.3 and 6.6 and 8.6 and 5.4
COc1cccc([C@H](O)C2CCN(CCc3ccc(F)cc3)CC2)c1OC [MDL 100907] | 5.4 and 6.7 and 5.2 and 5.8

Compound | Luminescence for Screening Data
CN1C[C@H](C(=O)N[C@]2(C)O[C@@]3(O)[C@@H]4CCCN4C(=O)[C@H](Cc4ccccc4)N3C2=O)C[C@@H]2c3cccc4[nH]cc(c34)C[C@H]21 [Dihydroergotamine mesylate] | 25.4 and 24.7 and 32.7 and 26.9
CN1CCC(C(=O)c2cccc(NC(=O)c3c(F)cc(F)cc3F)n2)CC1 [Lasmitidan] | 5.8 and 6.4 and 6.2 and 4.1
O=C1Cc2cc(CCN3CCN(c4nsc5ccccc45)CC3)c(Cl)cc2N1 [Ziprasidone] | 5.8 and 4.8 and 5.4
C=CCN1C[C@H](C(=O)N(CCCN(C)C)C(=O)NCC)C[C@@H]2c3cccc4[nH]cc(c34)C[C@H]21 [Cabergoline] | 7.4 and 6.2 and 7 and 5.7
O=[N+]([O-])c1ccc(CSc2ncnc3c2ncn3[C@@H]2O[C@H](CO)[C@@H](O)[C@H]2O)cc1 [NBMPR] | 6.9 and 7.3 and 6.6
Cl.N#Cc1ccc(N2CCN(C(=O)COc3ccc4[nH]cc(CCN)c4c3)CC2)cc1 [Donitriptan hydrochloride] | 9.4 and 7.6 and 8.3 and 7.4
CC1CCN(CC[C@H]2CCCN2S(=O)(=O)c2cccc(O)c2)CC1 [SB269970] | 7.2 and 7 and 6.5
CN1CCC(c2c[nH]c3ccc(O)cc23)CC1 [BRL 54443] | 10 and 7.1 and 8.1 and 6.4
CNS(=O)(=O)Cc1ccc2[nH]cc(CCN(C)C)c2c1 [Sumatriptan] | 6.2 and 7.3
CC(C)[C@@]1(NC(=O)[C@@H]2C[C@@H]3c4cccc5[nH]cc(c45)C[C@H]3N(C)C2)O[C@@]2(O)[C@@H]3CCCN3C(=O)[C@H](Cc3ccccc3)N2C1=O [Dihydroergocristine mesylate] | 5.9 and 6.4 and 5.1 and 5.2
Cc1nc2n(c(=O)c1CCN1CCC(c3noc4cc(F)ccc34)CC1)CCCC2 [Risperidone] | 6.7 and 6 and 6.8 and 7
O=C1NCCN1CCN1CCC(c2cn(-c3ccc(F)cc3)c3ccc(Cl)cc23)CC1 [Sertindole] | 7.6 and 9 and 6.3
C=C[C@H]1C[N@@]2CC[C@H]1C[C@H]2[C@H](O)c1ccnc2ccc(OC)cc12 [Quinine sulfate] | 7.1 and 8 and 6.1 and 7.2
N#Cc1c[nH]c2c(C(=O)N3CCN(CCc4ccc(F)cc4)CC3)cccc12 [EMD281014] | 4.2 and 3.9 and 4.4
CNc1cc(OC)c(C(=O)NC2CCN(Cc3ccccc3)C2C)cc1Cl (stereo not drawn) [Nemonapride] | 5.7 and 7.5 and 7.3 and 6.6
O=c1[nH]c2ccccc2n1C1CCN(CCCC(c2ccc(F)cc2)c2ccc(F)cc2)CC1 [pimozide] | 4.4 and 4.3 and 5
NC(=O)C[S+]([O-])C(c1ccccc1)c1ccccc1 (stereo not drawn) [Modafanil] | 6.8 and 5.8 and 5.7 and 8.1
CC(C)c1cc(-c2ccc(F)c3ccccc23)nc(N)n1 [RS 127445] | 10.7 and 5.8 and 6.4 and 7
CN1CCC(=C2c3ccccc3Sc3ccccc32)CC1 [Pimethixine] | 3.8 and 3.7
